# Measured values as given in publication PMC6364417, “Kinase inhibitor library screening identifies synergistic drug combinations effective in sensitive and resistant melanoma cells” (Journal of Experimental & Clinical Cancer Research : CR, 2019).
# Columns and labels:
# Assay in all cases: Kinase inhibitor library screening, PrestoBlue cell viability, 1 or 10 μM, 72 h
# 501Mel cells (parental) = details: 72 h
# How it was run: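 Readout: PrestoBlue signal on a monochromator plate reader, given as percent viability relative to untreated controls. Parental and drug-resistant (Vemurafenib XP, Dabrafenib GP) sublines were tested; at least duplicates per line.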
# [1] = system: 501Mel-GP cells (Dabrafenib-resistant); details: 72 h
# [2] = system: 501Mel-XP cells (Vemurafenib-resistant); details: 72 h
# A375 cells (parental) = system: A375 cells (parental)
# [3] = system: A375-GP cells (Dabrafenib-resistant)
# [4] = system: A375-XP cells (Vemurafenib-resistant)
# IGR37 cells (parental) = system: IGR37 cells (parental)
# [5] = system: IGR37-GP cells (Dabrafenib-resistant)
# [6] = system: IGR37-XP cells (Vemurafenib-resistant)
# [7] = IGR37 Parental, 10μΜ, 72 h, in %
compound,measurement,setting,value
Cn1cc(C2=C(c3cn(C4CCN(Cc5ccccn5)CC4)c4ccccc34)C(=O)NC2=O)c2ccccc21 [Enzastaurin (LY317615)],"Cell viability in kinase inhibitor library screening, 501Mel Parental, 1μΜ","501Mel cells (parental); 501Mel Parental, 1μΜ, in %",78.4
same,"Cell viability in kinase inhibitor library screening, 501Mel Parental, 10μΜ","501Mel cells (parental); 501Mel Parental, 10μΜ, in %",63.8
same,"Cell viability in kinase inhibitor library screening, 501Mel GP, 1μΜ","[1]; 501Mel GP, 1μΜ, in %",92.5
same,"Cell viability in kinase inhibitor library screening, 501Mel GP, 10μΜ","[1]; 501Mel GP, 10μΜ, in %",54.6
same,"Cell viability in kinase inhibitor library screening, 501Mel XP, 1μΜ","[2]; 501Mel XP, 1μΜ, in %",85.4
same,"Cell viability in kinase inhibitor library screening, 501Mel XP, 10μΜ","[2]; 501Mel XP, 10μΜ, in %",48.1
same,"Cell viability in kinase inhibitor library screening, A375 Parental, 10μΜ","A375 cells (parental); A375 Parental, 10μΜ, 72 h",55.3
same,"Cell viability in kinase inhibitor library screening, A375 Parental, 1μΜ","A375 cells (parental); A375 Parental, 1μΜ, 72 h",99.1
same,"Cell viability in kinase inhibitor library screening, A375 GP, 1μΜ","[3]; A375 GP, 1μΜ, 72 h",97.4
same,"Cell viability in kinase inhibitor library screening, A375 GP, 10μΜ","[3]; A375 GP, 10μΜ, 72 h",58.1
same,"Cell viability in kinase inhibitor library screening, A375 XP, 1μΜ","[4]; A375 XP, 1μΜ, 72 h",103.5
same,"Cell viability in kinase inhibitor library screening, A375 XP, 10μΜ","[4]; A375 XP, 10μΜ, 72 h",66.7
same,"Cell viability in kinase inhibitor library screening, IGR37 Parental, 10μΜ",IGR37 cells (parental); [7],82.6
same,"Cell viability in kinase inhibitor library screening, IGR37 GP, 10μΜ","[5]; IGR37 GP, 10μΜ, 72 h",58.7%
same,"Cell viability in kinase inhibitor library screening, IGR37 GP, 1μΜ","[5]; IGR37 GP, 1μΜ, 72 h, in %",100.0
same,"Cell viability in kinase inhibitor library screening, IGR37 XP, 10μΜ","[6]; IGR37 XP, 10μΜ, 72 h",31.7%
same,"Cell viability in kinase inhibitor library screening, IGR37 XP, 1μΜ","[6]; IGR37 XP, 1μΜ, 72 h, in %",98.3
CC(C)(O)CC(=O)NCCn1ccc2ncnc(Nc3ccc(Oc4cccc(C(F)(F)F)c4)c(Cl)c3)c21 [TAK-285],viability at 1 µM,"501Mel cells (parental); Homo sapiens, read-out: cell viability, 501Mel Parental, 1μΜ",101%
same,viability at 10 µM,"501Mel cells (parental); Homo sapiens, read-out: cell viability, 501Mel Parental, 10μΜ",99%
same,viability at 1 µM,"[1]; Homo sapiens, read-out: cell viability, 501Mel GP, 1μΜ",104%
same,viability at 10 µM,"[1]; Homo sapiens, read-out: cell viability, 501Mel GP, 10μΜ",87.8%
same,viability at 1 µM,"[2]; Homo sapiens, read-out: cell viability, 501Mel XP, 1μΜ",94.8%
same,viability at 10 µM,"[2]; Homo sapiens, read-out: cell viability, 501Mel XP, 10μΜ",83.2%
same,viability at 1 µM,"A375 cells (parental); Homo sapiens, A-375, 72 h, read-out: cell viability, A375 Parental, 1μΜ",102%
same,viability at 10 µM,"A375 cells (parental); Homo sapiens, A-375, 72 h, read-out: cell viability, A375 Parental, 10μΜ",90.5%
same,viability at 1 µM,"[3]; Homo sapiens, A-375, 72 h, read-out: cell viability, A375 GP, 1μΜ",103%
same,viability at 10 µM,"[3]; Homo sapiens, A-375, 72 h, read-out: cell viability, A375 GP, 10μΜ",83.1%
same,viability at 1 µM,"[4]; Homo sapiens, A-375, 72 h, read-out: cell viability, A375 XP, 1μΜ",108%
same,viability at 10 µM,"[4]; Homo sapiens, A-375, 72 h, read-out: cell viability, A375 XP, 10μΜ",87.7%
same,viability at 1 µM,"IGR37 cells (parental); Homo sapiens, IGR-37, 72 h, read-out: cell viability, IGR37 Parental, 1μΜ",108%
same,viability at 10 µM,"IGR37 cells (parental); Homo sapiens, IGR-37, 72 h, read-out: cell viability, IGR37 Parental, 10μΜ",99.7%
same,viability at 1 µM,"[5]; Homo sapiens, IGR-37, 72 h, read-out: cell viability, IGR37 GP, 1μΜ",90.8%
same,viability at 10 µM,"[5]; Homo sapiens, IGR-37, 72 h, read-out: cell viability, IGR37 GP, 10μΜ",86%
same,viability at 1 µM,"[6]; Homo sapiens, IGR-37, 72 h, read-out: cell viability, IGR37 XP, 1μΜ",87.2%
same,viability at 10 µM,"[6]; Homo sapiens, IGR-37, 72 h, read-out: cell viability, IGR37 XP, 10μΜ",48.4%
CS(=O)(=O)CCNCc1ccc(-c2ccc3ncnc(Nc4ccc(OCc5cccc(F)c5)c(Cl)c4)c3c2)o1.Cc1ccc(S(=O)(=O)O)cc1.Cc1ccc(S(=O)(=O)O)cc1 [Lapatinib Ditosylate (Tykerb)],"cell viability, 501Mel Parental, 10μΜ","501Mel cells (parental); 501Mel Parental, 10μΜ, in %",33.4
same,"cell viability, 501Mel GP, 10μΜ","[1]; 501Mel GP, 10μΜ, in %",78.0
same,"cell viability, 501Mel XP, 1μΜ","[2]; 501Mel XP, 1μΜ, in %",94.1
same,"cell viability, 501Mel XP, 10μΜ","[2]; 501Mel XP, 10μΜ, in %",-0.129
same,"cell viability, A375 Parental, 10μΜ","A375 cells (parental); A375 Parental, 10μΜ, 72 h, in %",78.4
same,"cell viability, A375 GP, 10μΜ","[3]; A375 GP, 10μΜ, 72 h, in %",81.7
same,"cell viability, A375 XP, 1μΜ","[4]; A375 XP, 1μΜ, 72 h, in %",114.8
same,"cell viability, A375 XP, 10μΜ","[4]; A375 XP, 10μΜ, 72 h, in %",72.3
same,"cell viability, IGR37 Parental, 10μΜ",IGR37 cells (parental); [7],92.3
same,"cell viability, IGR37 GP, 10μΜ","[5]; IGR37 GP, 10μΜ, 72 h",14%
same,"cell viability, IGR37 XP, 10μΜ","[6]; IGR37 XP, 10μΜ, 72 h",1.6%
CCn1cc(-c2ccnc3[nH]c(-c4cccc(CN(C)C)c4)cc23)c(-c2ccc(NC(=O)N(C)C)cc2)n1 [GSK1070916],cell viability (kinase inhibitor library screening),"501Mel cells (parental); 501Mel Parental, 1μΜ",94.0%
same,cell viability (kinase inhibitor library screening),"501Mel cells (parental); 501Mel Parental, 10μΜ",36.8%
same,cell viability (kinase inhibitor library screening),"[1]; 501Mel GP, 10μΜ",50.8%
same,cell viability (kinase inhibitor library screening),"[2]; 501Mel XP, 1μΜ",90.5%
same,cell viability (kinase inhibitor library screening),"[2]; 501Mel XP, 10μΜ",18.1%
same,cell viability (kinase inhibitor library screening),"A375 cells (parental); A375 Parental, 10μΜ, 72 h",36.0%
same,cell viability (kinase inhibitor library screening),"A375 cells (parental); A375 Parental, 1μΜ, 72 h",53.8%
same,cell viability (kinase inhibitor library screening),"[3]; A375 GP, 1μΜ, 72 h",47.6%
same,cell viability (kinase inhibitor library screening),"[3]; A375 GP, 10μΜ, 72 h",34.9%
same,cell viability (kinase inhibitor library screening),"[4]; A375 XP, 1μΜ, 72 h",57.6%
same,cell viability (kinase inhibitor library screening),"[4]; A375 XP, 10μΜ, 72 h",37.9%
same,cell viability (kinase inhibitor library screening),"IGR37 cells (parental); IGR37 Parental, 1μΜ, 72 h",94.1%
same,cell viability (kinase inhibitor library screening),"IGR37 cells (parental); IGR37 Parental, 10μΜ, 72 h",85.3%
same,cell viability (kinase inhibitor library screening),"[5]; IGR37 GP, 1μΜ, 72 h",98.0%
same,cell viability (kinase inhibitor library screening),"[5]; IGR37 GP, 10μΜ, 72 h",46.1%
same,cell viability (kinase inhibitor library screening),"[6]; IGR37 XP, 1μΜ, 72 h",88.9%
same,cell viability (kinase inhibitor library screening),"[6]; IGR37 XP, 10μΜ, 72 h",7.5%
